SMILES strings stand for the structures. “Also recorded” adds a separate entry of the source.

One series has as its target T1, human RORγ hybrids of both isoforms 1 and 2 (Homo sapiens, UniProt P51449).
T1 sequence (P51449 259-518): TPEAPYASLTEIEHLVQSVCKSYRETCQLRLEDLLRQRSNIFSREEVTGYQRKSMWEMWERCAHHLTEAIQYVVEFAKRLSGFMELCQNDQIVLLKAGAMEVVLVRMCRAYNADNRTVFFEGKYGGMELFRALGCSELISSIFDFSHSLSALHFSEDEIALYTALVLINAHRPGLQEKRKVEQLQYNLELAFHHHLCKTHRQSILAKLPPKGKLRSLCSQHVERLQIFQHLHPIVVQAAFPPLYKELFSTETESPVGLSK
The experiment in a line: Human RAR-related Orphan Receptor Gamma Reporter Assay System. Type of series: cell-based.
Settings: not given
Compound `CC1(c2cccc([N+](=O)[O-])c2)Nc2ccccc2C(=O)N1N=Cc1cc(Br)cc(Br)c1O` (stereo not drawn) [Compound 34] gave an IC50 of 10 µM.

Still in this series, the particulars now being: result in words.
In the case of `Cc1cc(C=C2C(=O)NC(=S)N(c3cccc(Br)c3)C2=O)c(C)n1-c1ccc(S(N)(=O)=O)cc1` [Compound 2], the “RORγt activity in experimental testing (active / inactive)” value (“RORγt activity … (active / inactive)” for short) is given as “active”.

Consider `Cc1ccccc1-c1cc(C(=O)N2CCN(c3cccc(C(F)(F)F)c3)CC2)c2ccccc2n1` [Compound 12], for which the “RORγt activity … (active / inactive)” value is “less active”.

As for `Cc1ccc(-c2cc(C(=O)N3CCN(c4cccc(C(F)(F)F)c4)CC3)c3ccccc3n2)o1` [Compound 13], the “RORγt activity … (active / inactive)” value is on record as “less active”.

Regarding `Cc1ccccc1-c1cc(C(=O)N2CCN(c3ccc([N+](=O)[O-])cc3)CC2)c2ccccc2n1` [Compound 16], the “RORγt activity … (active / inactive)” value was “either insoluble or inactive”.

As to `Cc1ccc(-c2cc(C(=O)N3CCN(c4ccc(F)cc4)CC3)c3ccccc3n2)cc1` [Compound 17], the “RORγt activity … (active / inactive)” value is “either insoluble or inactive; also recorded: inactivity”.

Consider `O=C(COC(=O)c1cccc(N2C(=O)C3C4c5ccccc5C(c5ccccc54)C3C2=O)c1)c1ccccc1` (stereo not drawn) [Compound 18], for which the “RORγt activity … (active / inactive)” value was “activity”.

Consider `O=C(COC(=O)c1cccc(N2C(=O)C3C4c5ccccc5C(c5ccccc54)C3C2=O)c1)c1ccc(Cl)cc1` (stereo not drawn) [Compound 19], for which the “RORγt activity … (active / inactive)” value was “activity”.

With `O=C(Oc1ccc(N2C(=O)C3C4c5ccccc5C(c5ccccc54)C3C2=O)cc1)c1cccc([N+](=O)[O-])c1` (stereo not drawn) [Compound 20], the “RORγt activity … (active / inactive)” value was “inactive”.

`O=C(O)c1ccc(NC(=O)c2cccc(N3C(=O)C4C5c6ccccc6C(c6ccccc65)C4C3=O)c2)cc1` (stereo not drawn) [Compound 21]: the “RORγt activity … (active / inactive)” value is “inactive”.

Turning to `CC1(c2cccc([N+](=O)[O-])c2)Nc2ccccc2C(=O)N1N=Cc1cc(Br)cc(Br)c1O` (stereo not drawn) [Compound 34], the “RORγt activity … (active / inactive)” value is recorded as “not a particularly potent inverse agonist”.

System in another series: not given
Experiment: not given
The conditions noted are these: listed 15.11.2017 in the ChEMBL; cited from earlier work.
On to `CC(C)CN(Cc1ccc(F)cc1)S(=O)(=O)c1ccc(NC2CCN(S(C)(=O)=O)CC2)nc1` [Compound 3QQ, N-(4-fluorobenzyl)-N-(2-methylpropyl)-6-{[1-(methylsulfonyl)piperidin-4-yl]amino}pyridine-3-sulfonamide], for which the “log P” value is given as 2.3.

The values are drawn from article PMC6044741 (ACS Omega, 2018).
